Measurements taken from US6692927B2, “Bax degradation involvement in tumor survival and progression” (University of South Florida, priority 2000, dated 2004).
Where a SMILES comes first, the peptide text is derived from it. [ ]: non-standard residue; d: D form. The star is where a group is joined. Nva = CCC[C@H](N)C(=O)O; Cbz = O=C(OCc1ccccc1)*

Test system: normal WI-38 cells
Assay: PARP cleavage, cytochrome c release, Bax and p21 in normal fibroblasts
Assay type: cell-based, human
Conditions: 50 microM LLnV
Text: Proteasome inhibitors activate Bax- and cytochrome c-dependent apoptosis pathway preferentially in transformed human fibroblasts. Normal human fibroblasts are more resistant to proteasome inhibitor-induced apoptosis than transformed and cancer cells (An et al., in press). This is probably due to inability of the normal cells to accumulate Bax protein in response to proteasome inhibition, and consequently failure to release cytochrome c. To test this hypothesis, both SV40-transformed and normal WI-38 cells were treated with 50 microM LLnV for up to 24 hours, followed by measurement of PARP cleavage, cytochrome c release and Bax accumulation. […] In contrast, only after 24 hours treatment, low levels of p85/PARP fragment and cytosolic cytochrome c were detected in normal WI-38 cells (FIGS. 1, A, B, lanes 8-14). […] The levels of Bax/p21 were increased at as early as 4 hours and remained high afterwards. […] The level of another band of ˜47 kDa increased at 4 hours, further increased between 6 and 12 hours, and then decreased (FIG. 1C). The p70 and p47 bands can contain ubiquitinated forms of Bax since similar polypeptides were detected by antibodies to both Bax and ubiquitin (Li et al., 1999). […] Therefore, although unable to activate the Bax- and cytochrome c-dependent apoptotic pathway in response to a low concentration of a proteasome inhibitor, normal cells are capable of undergoing Bax- and cytochrome c-independent apoptosis in response to a proteasome inhibitor at higher concentrations.
SV40-transformed (VA-13) and normal WI-38 cells were treated with 50 microM LLnV or DMSO (letter D) for up to 24 hours, followed by measurement of PARP cleavage (A), cytochrome c release (B) and Bax accumulation (C; also see FIG. 2). Panel D, exponentially grown VA-13 cells were pretreated with 50 microM LLnV or DMSO for 1 hour, washed with methionine-free medium, and then incubated for 30 minutes in methionine-free medium plus 50 microM LLnV (or DMSO). This was followed by replacing fresh methionine-free medium containing 150 microCi/ml of [^35S]-methionine, 10% dialyzed FBS and 50 microM LLnV (or DMSO). Cells were further incubated for 6 hours, followed by preparation of [^35S]-labeled protein lysates and Bax immunoprecipitates (6A7, PharMingen). The labeled Bax bands are indicated. […] Bax-alpha subcloned into pcDNA3 was used for coupled in vitro transcription/translation in the presence of [^35S]methionine. For Bax cleavage assay, the whole cell extracts were prepared. The [^35S]-labeled Bax (0.7 microl) was incubated with 50 microg protein in assay buffer (containing 50 microM LLM and no Ca^2+) for 4 hours at 37° C. Following incubation, the samples were subjected to SDS gel electrophoresis and autoradiography.

For `CCC[C@@H](C=O)NC(=O)[C@H](CC(C)C)NC(=O)[C@H](CC(C)C)NC(=O)OCc1ccccc1` [LLnV] (Cbz-Leu-Leu-[Nva]-aldehyde), the “time at which low levels of p85/PARP fragment and cytosolic cytochrome c were detected” value was 24 h.
